In patent publication US9932410B2, “Human neutralizing anti-kit antibodies and uses thereof” (INSERM (Institut National de la Sante et de la Recherche …, priority 2013, dated 2018):
Entries after “also recorded” stand apart in the source; their conditions may differ.

Columns and labels:
[1] = test system: HMC1.2 (KIT V560G D816V) cells; experiment: Proliferation assay (MTS cell viability) on HMC1.2 cells
HMC1.1 (KITV560G) cells = experiment: Proliferation assay (MTS cell viability) on HMC1.1 cells; type: cell-based, human
Method: FIG. 5: Antibody modulation of oncogenic KIT. (A) HMC1.1 or HMC1.2 cells were incubated in IMDM 1% serum in the presence of anti-KIT antibodies or control antibody as indicated at 5 μg/mL (light grey) or 50 μg/mL (medium grey) or without antibody (dark grey). Cell viability is expressed in % compared to non treated cells. HMC1.1 or HMC1.2 cells were incubated in IMDM 10% serum in the presence of anti-KIT antibodies or control antibody (10 μg/mL) for 1, 2 or 24 hrs. As indicated and analyzed (B) by FACS using 104D2 anti-KIT antibody or (C) by western blot using anti-KIT and phospho-specific anti-KIT antibodies. (D) Three days treatment with anti-KIT antibodies maintained a low level of KIT on both mastocytoma cell lines.
UT-7 were seeded at 10^4 cells/well and treated for 4 days with 2D1, 3G1, H7 or Bot irrelevant antibody at 5 or 50 μg/mL […] in the presence of EPO or CHO-KL supernatant diluted 500 times. HMC1.1 and 1.2 were treated the same but for 7 days and with 1% SVF instead of 10% and without cytokines. Cell viability was estimated with MTS assay (PROMEGA) as recommended by the manufacturer.

[2] = target: T1, KIT surface level on UT-7/EPO cells (wild type KIT) (Homo sapiens, UniProt P10721); experiment: Internalization assay: KIT surface level by FACS with 104D2 on UT-7/EPO cells; type: cell-based
T1 construct: endogenous in cells; host or cells: UT-7/EPO human erythroleukemic cells

biotinylated KIT-ECD = target: T2, biotinylated KIT-ECD (Homo sapiens, UniProt P10721); experiment: Affinity measurement using yeast display of scFv with biotinylated KIT-ECD; type: binding; conditions: scFv displayed on yeast; for Kd: affinity matured variants, read-out: intrinsic Kd
T2 construct: KIT-ECD, amino acid 26 to 509, P10721 UniProtKB/Swiss-Prot; 6His (C); biotin (label); made in house; host or cells: insect cells (High Five, baculovirus)
Text: Cells were then put on ice, washed with ice cold FACS buffer and bound antigen was detected with Streptavin conjugated to PE.

T2 sequence (P10721 26-509): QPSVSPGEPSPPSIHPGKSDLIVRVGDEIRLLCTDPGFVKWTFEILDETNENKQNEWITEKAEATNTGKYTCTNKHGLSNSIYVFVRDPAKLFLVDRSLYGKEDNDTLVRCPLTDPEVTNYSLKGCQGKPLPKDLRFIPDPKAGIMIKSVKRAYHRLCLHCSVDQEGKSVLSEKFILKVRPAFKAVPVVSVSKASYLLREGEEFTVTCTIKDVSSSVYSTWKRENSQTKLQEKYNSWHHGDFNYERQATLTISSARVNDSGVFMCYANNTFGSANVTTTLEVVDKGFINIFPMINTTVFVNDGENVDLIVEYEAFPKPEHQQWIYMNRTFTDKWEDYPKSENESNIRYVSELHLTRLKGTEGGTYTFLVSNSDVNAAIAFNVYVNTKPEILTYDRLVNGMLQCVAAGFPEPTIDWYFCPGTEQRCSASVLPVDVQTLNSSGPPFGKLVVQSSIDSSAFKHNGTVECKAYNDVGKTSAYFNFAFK
T1 sequence (P10721 26-976): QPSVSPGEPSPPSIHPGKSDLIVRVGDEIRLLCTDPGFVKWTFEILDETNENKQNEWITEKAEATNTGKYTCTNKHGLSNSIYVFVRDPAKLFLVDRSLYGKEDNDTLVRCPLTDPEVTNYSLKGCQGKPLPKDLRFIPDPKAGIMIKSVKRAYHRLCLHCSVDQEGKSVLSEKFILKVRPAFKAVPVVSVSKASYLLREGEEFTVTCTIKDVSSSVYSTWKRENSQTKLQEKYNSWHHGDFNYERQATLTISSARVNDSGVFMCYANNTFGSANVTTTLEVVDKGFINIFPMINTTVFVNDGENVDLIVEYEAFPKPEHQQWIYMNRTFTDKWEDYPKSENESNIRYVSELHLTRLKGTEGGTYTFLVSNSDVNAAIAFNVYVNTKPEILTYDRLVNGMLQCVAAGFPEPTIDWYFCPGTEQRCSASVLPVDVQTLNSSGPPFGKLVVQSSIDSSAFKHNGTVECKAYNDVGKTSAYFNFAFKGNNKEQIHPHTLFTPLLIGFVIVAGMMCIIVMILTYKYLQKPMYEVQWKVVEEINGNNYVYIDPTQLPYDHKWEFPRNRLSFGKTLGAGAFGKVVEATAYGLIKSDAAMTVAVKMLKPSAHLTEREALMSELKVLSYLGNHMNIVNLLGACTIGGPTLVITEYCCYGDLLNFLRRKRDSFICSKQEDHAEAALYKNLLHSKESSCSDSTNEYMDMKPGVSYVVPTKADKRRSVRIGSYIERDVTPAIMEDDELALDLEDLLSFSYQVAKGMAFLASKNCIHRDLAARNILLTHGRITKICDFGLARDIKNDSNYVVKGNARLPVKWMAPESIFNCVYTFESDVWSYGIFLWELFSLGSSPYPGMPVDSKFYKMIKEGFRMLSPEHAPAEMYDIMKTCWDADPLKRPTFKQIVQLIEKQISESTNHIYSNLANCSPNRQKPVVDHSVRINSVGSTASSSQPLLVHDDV

| concentration of Ag at which saturation is reached (biotinylated KIT-ECD) | Kd (biotinylated KIT-ECD) | Molecule | toxicity of TKI to HMC1.2 cells [1] | toxicity of TKI to HMC1.1 cells (HMC1.1 (KITV560G) cells) | KIT surface levels, imatinib treatment alone ([2]; UT-7/EPO cells with EPO, Imatinib 1 μM, 4 hrs) | effect on SCF-induced KIT surface level decrease ([2]; UT-7/EPO cells, imatinib with SCF) |
| --- | --- | --- | --- | --- | --- | --- |
| – | – | Cc1nc(Nc2ncc(C(=O)Nc3c(C)cccc3Cl)s2)cc(N2CCN(CCO)CC2)n1 [dasatinib, N-(2-chloro-6-methylphenyl)-2-[[6-[4-(2-hydroxyethyl)-1-piperazinyl]-2-methyl-4-pyrimidinyl]amino]-5-thiazole-carboxamide monohydrate] | toxic to HMC1.2 cells | toxic to HMC1.1 cells | – | – |
| – | – | Cc1ccc(NC(=O)c2ccc(CN3CCN(C)CC3)cc2)cc1Nc1nccc(-c2cccnc2)n1 [imatinib, 4-[(4-methylpiperazin-1-yl)methyl]-N-(4-methyl-3-{[4-(pyridin-3-yl)pyrimidin-2-yl]amino}phenyl)benzamide] | resistance of the D816V mutant to imatinib | toxic to HMC1.1 cells | decreased KIT surface levels; also recorded: reduced KIT level at the cell surface | inhibited SCF-induced KIT surface level decrease |
| 10 nM | 1.7 nM | 3G1-A2: affinity matured variant of 3G1, same VH (SEQ ID NO: 9), VL SEQ ID NO: 30 (antibody, V domains shown, Synthetic 3G1 VH chain; Synthetic 3G1-A2 VL chain) VH: MAQVQLVESWGGVAQPGRSLRLSCAASGFTFSSFAMHWVRQAPGKGLEWVAVTSYDGSNEYYADSVKGRFTISRDNSKNTLYLQMNSLRAEDTAVYYCAKAMVRGVTFGDLDYWGQGTLVTVSS VL: SSELTQDPAVSVALGQTVRKTCQGDSLKSYYASWYQQKPGQAPVLVIYGENSRPSGIPDRFSGSSSGNTASLTITGAQAEDEADYYCCSRATGGYHRIFGGGTKLTVLG | – | – | – | – |
| 10 nM | 4.2 nM | 2D1-C7: affinity matured variant of 2D1, same VH (SEQ ID NO: 1), VL SEQ ID NO: 26 (antibody, V domains shown, Synthetic 2D1 VH chain; Synthetic 2D1-C7 VL chain) VH: MAQVKLQESGGGLVQPGGSLRLSCAASGFTFDSYAMSWVRQAPGKGLEWVSYITSSSSTIYYVDSVKGRFTISRDNAKNSLYLQMNSLRDEDTAVYYCARLRNSEGYWYFDLWGRGTLVTVSS VL: SQSVLTQDPAVSVALGQTVRITCQGDSLRSYYASWYQQKPGQAPLLVMYGENIRPSGIPDRFSGSTSGNSASLTITGAQAEDEADYYCNSRDSSGNHLNWVFGGGTKLTVLG | – | – | – | – |
